Assay results from article PMC4394546, “Discovery of Benzo[f]indole-4,9-dione Derivatives as New Types of Anti-Inflammatory Agents” (International Journal of Molecular Sciences, 2015).

Experiments:
MCF7 (breast) = experiment: In vitro cytotoxicity against MCF7 cells; format: cell-based; conditions: Homo sapiens, MCF7; mean ± standard deviation, three experiments
Procedure: (§1) These benzo[f]indole-4,9-dione derivatives were evaluated in vitro against a panel of cell lines consisting of MCF7 (breast), NCI-H460 (lung), and SF-268 (CNS) as described previously. […] Results from Table 2 indicated compounds 15 and 16 were cytotoxic and their IC50 against three cancer cells and a normal cell, Detroit 551, were shown in Table 3.

[1] = In vitro cytotoxicity against MCF7 cells; format: cell-based; conditions: human, MCF7 breast cancer cells; 4 μg/mL; read-out: Cytotoxicity (% survival rate), MCF7
Procedure: as §1

Detroit 551 = experiment: In vitro cytotoxicity against normal cell Detroit 551; format: cell-based; conditions: Homo sapiens, mean ± standard deviation, three experiments
Procedure: as §1

human neutrophils = experiment: Cytotoxicity in human neutrophils by lactate dehydrogenase (LDH) release; format: cell-based
Source text: The action mechanisms of 10 in human neutrophils were further investigated. Human neutrophil activations, such as respiratory burst and degranulation, are regulated by Akt and calcium signal pathways. Therefore, calcuim and Akt are considered as therapeutic target for developing anti-inflammatory agents.
(§2) Blood was taken from healthy human donors (20–30 years old) by venipuncture, using a protocol approved by the institutional review board at Chang Gung Memorial Hospital. Neutrophils were isolated with a standard method of dextran sedimentation prior to centrifugation in a Ficoll Hypaque gradient and hypotonic lysis of erythrocytes.

SF-268 (CNS) = experiment: In vitro cytotoxicity against SF-268 cells; format: cell-based; conditions: Homo sapiens, SF-268; mean ± standard deviation, three experiments
Procedure: as §1

[2] = In vitro cytotoxicity against SF-268 cells; format: cell-based; conditions: human, SF-268 CNS cancer cells; 4 μg/mL; read-out: Cytotoxicity (% survival rate), SF-268
Procedure: as §1

NCI-H460 (lung) = experiment: In vitro cytotoxicity against NCI-H460 cells; format: cell-based; conditions: Homo sapiens, NCI-H460; mean ± standard deviation, three experiments
Procedure: as §1

[3] = In vitro cytotoxicity against NCI-H460 cells; format: cell-based; conditions: human, NCI-H460 lung cancer cells; 4 μg/mL; read-out: Cytotoxicity (% survival rate), NCI-H460
Procedure: as §1

[4] = test system: fMLF-activated human neutrophils; experiment: Superoxide anion generation in fMLF-activated human neutrophils (ferricytochrome c reduction); format: cell-based; conditions: Neutrophil, mean ± SEM (n = 3), read-out: Superoxide Anion (IC50, concentration necessary for 50% inhibition)
Procedure: as §2
(§3) Superoxide generation and elastase release were carried out according to the procedures described previously. Neutrophils (6 × 10^5/mL) were equilibrated at 37 °C for 2 min and incubated with compounds for 5 min. Neutrophils were then activated by fMLF (100 nM) in the pretreatment of cytochalasin B (1 μg/mL for superoxide generation and 0.5 μg/mL for elastase release) for 10 min. Superoxide anion production was assayed by monitoring the superoxide dismutase-inhibitable reduction of ferricytochrome c. Elastase release was performed using MeO-Suc-Ala-Ala-Pro-Valp-nitroanilide as the elastase substrate.

[5] = test system: fMLF-activated human neutrophils; experiment: Neutrophil elastase release in fMLF-activated human neutrophils; format: cell-based; conditions: for IC50: Homo sapiens, Neutrophil, fMLF-activated human neutrophils, mean ± SEM (n = 3), read-out: Elastase Release (IC50, concentration necessary for 50% inhibition)
Procedure: as §2, §3

Src (Src family Y416) = experiment: Western analysis of fMLF-induced Src phosphorylation in human neutrophils; format: cell-based; conditions: fMLF-activated human neutrophils; Figure 2A
Procedure: as §2
(§4) Neutrophils were pretreated with compounds for 5 min before being stimulated with fMLF at 37 °C. The reaction was stopped by adding 5 × Laemmli’s sample buffer. Proteins derived from whole-cell lysates were separated by SDS-polyacrylamide gel electrophoresis (PAGE) using polyacrylamide gels and blotted onto nitrocellulose membranes. Immunoblotting was performed using the indicated antibodies and horseradish peroxidase (HRP)-conjugated secondary anti-rabbit antibodies (Cell Signaling Technology, Beverly, MA, USA). The immunoreactive bands were visualized by an enhanced chemiluminescence system (Amersham Biosciences, Bucks, UK) and detected by Ultraviolet Product (UVP) imaging system (Upland, CA, USA).

[Ca^2+]i = fMLF-induced intracellular calcium mobilization in human neutrophils (fluo-3 AM); format: cell-based; conditions: Figure 3
Procedure: as §2
Neutrophils were loaded with fluo-3 AM (2 μM) at 37 °C for 45 min. Cells were preincubated with compounds for 5 min, and then activated by fMLF (100 nM). The change in fluorescence was monitored using a Hitachi F-4500 spectrofluorometer (Tokyo, Japan). The excitation wavelength was 488 nm, and the emission wavelength was 520 nm.

Akt (S473) = experiment: Western analysis of fMLF-induced Akt phosphorylation in human neutrophils; format: cell-based; conditions: fMLF-activated human neutrophils; Figure 2B
Procedure: as §2, §4

alveolar macrophages [6] = test system: alveolar macrophages; design: method as in PMID 10188987; conditions: cited from earlier work
alveolar macrophages [7] = test system: alveolar macrophages; design: method as in PMID 10188987; conditions: cited from earlier work; remark: listed apart in the source
K562 cell = test system: K562 cell; design: method as in PMID 20591678; conditions: read-out: IC50 against the growth of K562 cell; cited from earlier work
[8] = test system: superoxide anion generation; design: method as in PMID 22510297; conditions: cited from earlier work
[9] = test system: LPS-induced Raw 264.7 cells; design: method as in PMID 23232148; conditions: cited from earlier work
[10] = test system: LPS-induced Raw 264.7 cells; design: method as in PMID 23232148; conditions: cited from earlier work; remark: listed apart in the source
[11] = test system: LPS-induced PGE2 production; design: method as in PMID 22161217; conditions: read-out: Inhibition of LPS-induced PGE2 production, IC50; cited from earlier work

| Compound | melting point [°C] | IC50 [4] [µM] | IC50 [5] [µM] | viability at 4 μg/mL [1] [%] | viability at 4 μg/mL [2] [%] | viability at 4 μg/mL [3] [%] | other results |
| --- | --- | --- | --- | --- | --- | --- | --- |
| CCN(CC)CCNC(=O)c1ccc(/N=C2/c3ccccc3C(=O)c3c2ccn3Cc2ccccc2)cc1 [Compound 15, (Z)-4-(1-benzyl-9-oxo-1H-benzo[f]indol-4(9H)-ylideneamino)-N-[2-(diethylamino)ethyl]benzamide] | 152 to 153 | – | – | 82 | 120 | 31 | IC50 (MCF7 (breast)): 4.98 ± 0.15 µM; IC50 (Detroit 551): 7.68 ± 0.58 µM; Cytotoxicity in human neutrophils (LDH release) (human neutrophils; 3, 10 and 30 μM): showed cytotoxicity effects; IC50 (SF-268 (CNS)): 27.4 ± 0.39 µM; IC50 (NCI-H460 (lung)): 3.16 ± 0.13 µM |
| CCN(CC)CCNC(=O)c1ccc(/N=C2/c3ccccc3C(=O)c3c2cc(C)n3Cc2ccccc2)cc1 [Compound 16, (Z)-4-(1-benzyl-2-methyl-9-oxo-1H-benzo[f]indol-4(9H)-ylideneamino)-N-[2-(diethylamino)ethyl]benzamide] | 138 to 139 | 0.52 ± 0.11 | – | 57 | 106 | 18 | IC50 (MCF7 (breast)): 4.95 ± 0.21 µM; IC50 (Detroit 551): 4.78 ± 0.57 µM; Effect of compound alone on elastase release ([5]; human neutrophils, table dash with footnote b = alone induced elastase release): induced NE release of human neutrophils; IC50 (SF-268 (CNS)): 25.8 ± 1.66 µM; IC50 (NCI-H460 (lung)): 3.23 ± 0.34 µM |
| CC1(C)CCC2=C(O1)c1ccccc1C(=O)C2=O [β-LAPA, β-lapachone] | – | – | – | – | – | – | Inhibition of expression of nitric oxide (NO) (alveolar macrophages [6]): able to inhibit; Inhibition of expression of PGE2 (alveolar macrophages [7]): able to inhibit |
| O=C1c2ccccc2/C(=N/O)c2ccoc21 [Compound 5, (Z)-4-(hydroxyimino)naphtho[2,3-b]furan-9(4H)-one] | – | – | – | – | – | – | IC50 (K562 cell): 0.82 µM |
| benzo[a]furo[2,3-c]phenazinecarboxylic acid [Compound 3] | – | – | – | – | – | – | Inhibition of superoxide anion generation [8]: strongly inhibited superoxide anion generation |
| COc1ccc(OC2=CC(=O)C(=O)c3ccccc32)cc1 [Compound 4, 4-(4-methoxyphenoxy)naphthalene-1,2-dione] | – | – | – | – | – | – | Inhibition of TNF-α released [9]: able to inhibit; Inhibition of NO released [10]: able to inhibit |
| CON=C(C)c1c2c(n(Cc3ccccc3)c1C)C(=O)c1ccccc1C2=O [Compound 14, 1-Benzyl-3-[1-(methoxyimino)ethyl]-2-methyl-1H-benzo[f]indole-4,9-dione] | 168 to 169 | > 30 | > 30 | 104 | 112 | 108 | – |
| CC(=NO)c1c2c(n(Cc3ccccc3)c1C)C(=O)c1ccccc1C2=O [Compound 13, 1-Benzyl-3-[1-(hydroxyimino)ethyl]-2-methyl-1H-benzo[f]indole-4,9-dione] | 204 to 205 | 10.5 ± 0.52 | 14.7 ± 2.44 | 106 | 109 | 111 | – |
| COc1ccc(-c2nc3c4ccccc4c4occc4c3[nH]2)cc1 [Compound 2, 2-(4-methoxyphenyl)furo[3',2':3,4]naphtho[1,2-d]imidazole] | – | – | – | – | – | – | IC50 [11]: 0.047 µM |
| CC[C@@]1(O)C(=O)OCc2c1cc1n(c2=O)Cc2cc3ccccc3nc2-1 [CPT, camptothecin, reference compound] | – | – | – | 33 | 25 | 1 | IC50 (MCF7 (breast)): 0.57 ± 0.03 µM; IC50 (Detroit 551): 0.99 ± 0.09 µM; IC50 (SF-268 (CNS)): 0.19 ± 0.006 µM; IC50 (NCI-H460 (lung)): 0.03 ± 0.003 µM |

The next lines start with results.

| melting point [°C] | IC50 [4] [µM] | IC50 [5] [µM] | Compound | viability at 4 μg/mL [1] [%] | viability at 4 μg/mL [2] [%] | viability at 4 μg/mL [3] [%] | other results |
| --- | --- | --- | --- | --- | --- | --- | --- |
| 259 to 260 | 7.47 ± 1.39 | > 30 | Cc1cc2c(n1Cc1ccccc1)C(=O)c1ccccc1C2=NO [Compound 11, 1-Benzyl-4-(hydroxyimino)-2-methyl-1H-benzo[f]indol-9(4H)-one] | 104 | 102 | 110 | – |
| – | 1.36 ± 0.33 | 2.21 ± 0.45 | O=c1cc(N2CCOCC2)oc2c(-c3ccccc3)cccc12 [LY294002, reference compound] | – | – | – | – |
| 202 to 203 | 2.74 | 2.78 | O=C1c2ccccc2/C(=N/O)c2ccn(Cc3ccccc3)c21 [Compound 10, (Z)-1-Benzyl-4-(hydroxyimino)-1H-benzo[f]indol-9(4H)-one] | 110 | 106 | 110 | fMLF-induced phosphorylation of Src (Src family Y416) (Src (Src family Y416)): did not alter; Cytotoxicity in human neutrophils (LDH release) (human neutrophils; 30 μM, data not shown): showed no cytotoxicity effects; fMLF-induced mobilization of [Ca^2+]i ([Ca^2+]i): inhibited; fMLF-induced phosphorylation of Akt (S473) (Akt (S473)): inhibited |
| 139 to 140 | 14 ± 4.4 | > 30 | Cc1cc2c(n1Cc1ccccc1)C(=O)c1ccccc1C2=O [Compound 9, 1-Benzyl-2-methyl-1H-benzo[f]indole-4,9-dione] | 105 | 106 | 104 | – |
| 173 to 174 | 16.1 ± 1.87 | > 30 | O=C1c2ccccc2C(=O)c2c1ccn2Cc1ccccc1 [Compound 8, 1-Benzyl-1H-benzo[f]indole-4,9-dione] | 99 | 103 | 96 | – |
| 135 to 136 | > 30 | > 30 | CC(=O)c1c2c(n(Cc3ccccc3)c1C)C(=O)c1ccccc1C2=O [Compound 12, 3-Acetyl-1-benzyl-2-methyl-1H-benzo[f]indole-4,9-dione] | 78 | 115 | 88 | – |
